Experimental data as given in patent publication US11000033B2, “Ketone or oxime compound, and herbicide” (NISSAN CHEMICAL CORPORATION, priority 2014, dated 2021).

Legend:
Type in all cases: in vivo
Scirpus juncoides = assay: Test Example 2: herbicidal activity, application during weed generation in submerged conditions (symbol B); details: Table 23; application herbicide amount 320 g/ha; grade 0-5 by criteria of Test Example 1
How it was run: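 Submerged alluvial soil (4 cm) sown with mixed seed; greenhouse 25–30° C. 1–2 leaf: diluted emulsion onto water surface, preset dose. Visual score, 3 wk.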

Amaranthus retroflexus [1] = assay: Test Example 5: herbicidal effect by foliage application, plastic box (symbol N); details: 320 g/ha, 3 weeks after application
How it was run: (§1)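 Visual herbicidal score, taken three weeks post-application, of seedlings sprayed on the foliage with water-diluted emulsion at a predetermined amount; plants were 14 days old, greenhouse-raised at 25° C. to 30° C.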

[2] = tested on: Echinochloa oryzacola Vasing.; assay: Test Example 1: herbicidal activity, application before weed generation in submerged conditions (symbol A); details: application herbicide amount 320 g/ha
How it was run: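 Flooded alluvial soil (4 cm water) was mixed-sown with the three weed species, and 2.5-leaf rice seedlings were transplanted. On sowing day, a water-diluted emulsion at a predetermined rate was applied to the water surface. After 3 weeks in a 25–30 °C greenhouse, effect was scored 0–5.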

Veronica persica = assay: Test Example 5: herbicidal effect by foliage application, plastic box (symbol R); details: 320 g/ha, 3 weeks after application
How it was run: as §1

Abutilon theophrasti = assay: Test Example 5: herbicidal effect by foliage application, plastic box (symbol M); details: 320 g/ha, 3 weeks after application
How it was run: as §1

Apera spica-venti = assay: Test Example 5: herbicidal effect by foliage application, plastic box (symbol L); details: 320 g/ha, 3 weeks after application
How it was run: as §1

Lolium multiflorum Lam. = assay: Test Example 5: herbicidal effect by foliage application, plastic box (symbol K); details: 320 g/ha, 3 weeks after application
How it was run: as §1

corn = assay: Test Example 4: effect on crop by soil treatment (symbol c); details: for Effect on crop grade, c: corn: application herbicide amount 320 g/ha; for c: corn, effect grade on crop: 320 g/ha
How it was run: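 Greenhouse culture at 25° C. to 30° C. followed sowing of seed in spots on sterilized diluvial soil with a soil cover close to 1.5 cm thick.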

Cyperus difformis = assay: Test Example 3: herbicidal effect by foliage application, Wagner pot (symbol E); details: application herbicide amount 320 g/ha; for E herbicidal effect grade: Table 24
How it was run: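 Steps: fill pot with alluvial soil; add water to 0.1–0.5 cm depth; sow weed and rice seed; grow 14 days at 25–30 °C; spray diluted emulsion over the leaves; rate effect after 3 weeks.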

rapeseed = assay: Test Example 4: effect on crop by soil treatment (symbol g); details: for Effect on crop grade, g: rapeseed: application herbicide amount 320 g/ha; for g: rapeseed, effect grade on crop: 320 g/ha
How it was run: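 Grown at 25° C. to 30° C. in a greenhouse, the crops came from seed sown spot-wise in sterilized diluvial soil under roughly 1.5 cm of covering soil.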

Stellaria media = assay: Test Example 5: herbicidal effect by foliage application, plastic box (symbol P); details: 320 g/ha, 3 weeks after application
How it was run: as §1

Avena fatua = assay: Test Example 5: herbicidal effect by foliage application, plastic box (symbol I); details: 320 g/ha, 3 weeks after application
How it was run: as §1

Galium spurium = assay: Test Example 5: herbicidal effect by foliage application, plastic box (symbol Q); details: 320 g/ha, 3 weeks after application
How it was run: as §1

[3] = tested on: Echinochloa crus-galli var. crus-galli; assay: Test Example 4: herbicidal effect by soil treatment (symbol H); details: for Herbicidal effect grade, H: Echinochloa crus-galli var. crus-galli: application herbicide amount 320 g/ha; for H: Echinochloa crus-galli var. crus-galli, herbicidal effect grade: 320 g/ha
How it was run: (§2)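 Seeds were sown in sterilized diluvial soil, covered with about 1.5 cm of soil, and the soil surface was sprayed with a water-diluted emulsion of the compound at a predetermined rate. Plants grew in a greenhouse at 25° C. to 30° C.; effects were scored visually 3 weeks after application.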

Amaranthus retroflexus [4] = assay: Test Example 4: herbicidal effect by soil treatment (symbol N); details: for Herbicidal effect grade, N: Amaranthus retroflexus: application herbicide amount 320 g/ha; for N: Amaranthus retroflexus, herbicidal effect grade: 320 g/ha
How it was run: as §2

| SMILES | Herbicidal effect grade, B: Scirpus juncoides (Scirpus juncoides) | N: Amaranthus retroflexus, herbicidal effect grade (Amaranthus retroflexus [1]) | A (Echinochloa oryzacola Vasing.) herbicidal effect grade [2] | R: Veronica persica, herbicidal effect grade (Veronica persica) | M: Abutilon theophrasti, herbicidal effect grade (Abutilon theophrasti) | L: Apera spica-venti, herbicidal effect grade (Apera spica-venti) | K: Lolium multiflorum Lam., herbicidal effect grade (Lolium multiflorum Lam.) | Effect on crop grade, c: corn (corn) | E herbicidal effect grade (Cyperus difformis) | Effect on crop grade, g: rapeseed (rapeseed) | P: Stellaria media, herbicidal effect grade (Stellaria media) | I: Avena fatua, herbicidal effect grade (Avena fatua) | Q: Galium spurium, herbicidal effect grade (Galium spurium) | Herbicidal effect grade, H: Echinochloa crus-galli var. crus-galli [3] | Herbicidal effect grade, N: Amaranthus retroflexus (Amaranthus retroflexus [4]) | N: Amaranthus retroflexus, herbicidal effect (criteria 0-5) (Amaranthus retroflexus [1]) | Herbicidal effect grade, A: Echinochloa oryzacola Vasing. [2] | R: Veronica persica, herbicidal effect (criteria 0-5) (Veronica persica) | M: Abutilon theophrasti, herbicidal effect (criteria 0-5) (Abutilon theophrasti) | L: Apera spica-venti, herbicidal effect (criteria 0-5) (Apera spica-venti) | other results |
| --- | --- | --- | --- | --- | --- | --- | --- | --- | --- | --- | --- | --- | --- | --- | --- | --- | --- | --- | --- | --- | --- |
| COCCON=C(CC1CC(O)=C(c2c(C)cc(-n3cc(Cl)cn3)cc2C)C1=O)C(C)C (stereo not drawn) [9-022] | 0 (Herbicidal ratio of 5% or lower (almost no effect)) | 0 (Herbicidal ratio of 5% or lower (almost no effect)) | 5 (Herbicidal ratio of 90% or more (almost completely withered)) | 0 (Herbicidal ratio of 5% or lower (almost no effect)) | 0 (Herbicidal ratio of 5% or lower (almost no effect)) | 2 (Herbicidal ratio of 20% or higher and lower than 40%) | 2 (Herbicidal ratio of 20% or higher and lower than 40%) | 1 (Herbicidal ratio of 5% or higher and lower than 20%) | 5 (Herbicidal ratio of 90% or more (almost completely withered)) | 0 (Herbicidal ratio of 5% or lower (almost no effect)) | 0 (Herbicidal ratio of 5% or lower (almost no effect)) | 0 (Herbicidal ratio of 5% or lower (almost no effect)) | 0 (Herbicidal ratio of 5% or lower (almost no effect)) | 5 (Herbicidal ratio of 90% or more (almost completely withered)) | 0 (Herbicidal ratio of 5% or lower (almost no effect)) | – | – | – | – | – | – |
| CC(CC1CC(OC(=O)COc2ccccc2)=C(c2c(C)cc(-n3cc(Cl)cn3)cc2C)C1=O)=NOCC(F)(F)F (stereo not drawn) [9-012] | 4 (Herbicidal ratio of 70% or higher and lower than 90%) | 4 (Herbicidal ratio of 70% or higher and lower than 90%) | 5 (Herbicidal ratio of 90% or more (almost completely withered)) | 3 (Herbicidal ratio of 40% or higher and lower than 70%) | 1 (Herbicidal ratio of 5% or higher and lower than 20%) | 5 (Herbicidal ratio of 90% or more (almost completely withered)) | 5 (Herbicidal ratio of 90% or more (almost completely withered)) | 2 (Herbicidal ratio of 20% or higher and lower than 40%) | 5 (Herbicidal ratio of 90% or more (almost completely withered)) | 0 (Herbicidal ratio of 5% or lower (almost no effect)) | 4 (Herbicidal ratio of 70% or higher and lower than 90%) | 5 (Herbicidal ratio of 90% or more (almost completely withered)) | 4 (Herbicidal ratio of 70% or higher and lower than 90%) | 5 (Herbicidal ratio of 90% or more (almost completely withered)) | 0 (Herbicidal ratio of 5% or lower (almost no effect)) | – | – | – | – | – | – |
| CON=C(C)CC1CC(OC(=O)c2nsc(Cl)c2Cl)=C(c2c(C)cc(C)cc2C)C1=O (stereo not drawn) [1-099] | 4 (Herbicidal ratio of 70% or higher and lower than 90%) | – | – | – | – | – | – | – | – | – | – | – | – | – | – | 0 (Herbicidal ratio of 5% or lower (almost no effect)) | 5 (Herbicidal ratio of 90% or more (almost completely withered)) | 3 (Herbicidal ratio of 40% or higher and lower than 70%) | 4 (Herbicidal ratio of 70% or higher and lower than 90%) | 5 (Herbicidal ratio of 90% or more (almost completely withered)) | K: Lolium multiflorum Lam., herbicidal effect (criteria 0-5) (Lolium multiflorum Lam.): 5 (Herbicidal ratio of 90% or more (almost completely withered)); c: corn, effect grade on crop (corn): 5 (Herbicidal ratio of 90% or more (almost completely withered)); herbicidal effect on E, grade 0-5 (Cyperus difformis): 5 (Herbicidal ratio of 90% or more (almost completely withered)); g: rapeseed, effect grade on crop (rapeseed): 5 (Herbicidal ratio of 90% or more (almost completely withered)); P: Stellaria media, herbicidal effect (criteria 0-5) (Stellaria media): 3 (Herbicidal ratio of 40% or higher and lower than 70%); I: Avena fatua, herbicidal effect (criteria 0-5) (Avena fatua): 5 (Herbicidal ratio of 90% or more (almost completely withered)); Q: Galium spurium, herbicidal effect (criteria 0-5) (Galium spurium): 3 (Herbicidal ratio of 40% or higher and lower than 70%); H: Echinochloa crus-galli var. crus-galli, herbicidal effect grade [3]: 5 (Herbicidal ratio of 90% or more (almost completely withered)); N: Amaranthus retroflexus, herbicidal effect grade (Amaranthus retroflexus [4]): 3 (Herbicidal ratio of 40% or higher and lower than 70%) |
| CC(CC1CC(O)=C(c2c(C)cc(C)cc2C)C1=O)=NOCC#N (stereo not drawn) [1-102] | 2 (Herbicidal ratio of 20% or higher and lower than 40%) | – | – | – | – | – | – | – | – | – | – | – | – | – | – | 0 (Herbicidal ratio of 5% or lower (almost no effect)) | 5 (Herbicidal ratio of 90% or more (almost completely withered)) | 2 (Herbicidal ratio of 20% or higher and lower than 40%) | 0 (Herbicidal ratio of 5% or lower (almost no effect)) | 5 (Herbicidal ratio of 90% or more (almost completely withered)) | K: Lolium multiflorum Lam., herbicidal effect (criteria 0-5) (Lolium multiflorum Lam.): 5 (Herbicidal ratio of 90% or more (almost completely withered)); c: corn, effect grade on crop (corn): 0 (Herbicidal ratio of 5% or lower (almost no effect)); herbicidal effect on E, grade 0-5 (Cyperus difformis): 5 (Herbicidal ratio of 90% or more (almost completely withered)); g: rapeseed, effect grade on crop (rapeseed): 0 (Herbicidal ratio of 5% or lower (almost no effect)); P: Stellaria media, herbicidal effect (criteria 0-5) (Stellaria media): 0 (Herbicidal ratio of 5% or lower (almost no effect)); I: Avena fatua, herbicidal effect (criteria 0-5) (Avena fatua): 5 (Herbicidal ratio of 90% or more (almost completely withered)); Q: Galium spurium, herbicidal effect (criteria 0-5) (Galium spurium): 0 (Herbicidal ratio of 5% or lower (almost no effect)); H: Echinochloa crus-galli var. crus-galli, herbicidal effect grade [3]: 5 (Herbicidal ratio of 90% or more (almost completely withered)); N: Amaranthus retroflexus, herbicidal effect grade (Amaranthus retroflexus [4]): 0 (Herbicidal ratio of 5% or lower (almost no effect)) |
| CC#Cc1cc(C)c(C2=C(O)CC(CC(C)=NOCC(F)(F)F)C2=O)c(C)c1 (stereo not drawn) [9-011] | 5 (Herbicidal ratio of 90% or more (almost completely withered)) | 2 (Herbicidal ratio of 20% or higher and lower than 40%) | 5 (Herbicidal ratio of 90% or more (almost completely withered)) | 3 (Herbicidal ratio of 40% or higher and lower than 70%) | 2 (Herbicidal ratio of 20% or higher and lower than 40%) | 5 (Herbicidal ratio of 90% or more (almost completely withered)) | 5 (Herbicidal ratio of 90% or more (almost completely withered)) | 5 (Herbicidal ratio of 90% or more (almost completely withered)) | 5 (Herbicidal ratio of 90% or more (almost completely withered)) | 4 (Herbicidal ratio of 70% or higher and lower than 90%) | 0 (Herbicidal ratio of 5% or lower (almost no effect)) | 5 (Herbicidal ratio of 90% or more (almost completely withered)) | 1 (Herbicidal ratio of 5% or higher and lower than 20%) | 5 (Herbicidal ratio of 90% or more (almost completely withered)) | 0 (Herbicidal ratio of 5% or lower (almost no effect)) | – | – | – | – | – | – |
